Measurements published in patent US20020151599A1, “FORMULATIONS HAVING AN ANTIVIRAL ACTION” (priority 1999, published 2002).

Experiments:
herpes simplex viruses = conditions: compounds of the same aglycone compared; quercetin active only in very high doses, if at all; cited from earlier work
solubility in solvents = format: physicochemical
Text: By virtue of its solubility profile, the compound is readily miscible, in some cases using solubilizers, with oils, fats and emulsions and, in view of its profile of properties, can be used in combination with other known light protection filters. […] In view of the property profile of isoquercitrin, it is easy for the person skilled in the art to choose suitable solvents and additives depending on the desired preparation product. It is particularly easy to prepare emulsions, gels or emulsion care sticks with isoquercitrin. It is, however, also possible to prepare all other cosmetic formulations, such as ointments, creams, lotions, oils, sticks and sprays, and also pharmaceutical formulations in solid or liquid form using appropriate additives.

Row | SMILES | antiviral effects (herpes simplex viruses) | skin tolerance, toxic or allergic reaction (skin tolerability) | solubility in polar solvents (solubility in solvents; ethanol or 1,2-propylene glycol) | solubility in glycerol (solubility in solvents; glycerol, forms a slightly cloudy solution)
1 | O=c1c(O)c(-c2ccc(O)c(O)c2)oc2cc(O)cc(O)c12 [quercetin] | virtually no antiviral effects | – | – | –
2 | O=c1c(O[C@@H]2O[C@H](CO)[C@@H](O)[C@H](O)[C@H]2O)c(-c2ccc(O)c(O)c2)oc2cc(O)cc(O)c12 [isoquercitrin] | – | well tolerated by the skin | particularly readily soluble | soluble in glycerol
